Measurements taken from ChEMBL document CHEMBL1201862, “PubChem BioAssay data set” (2004).
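Test compounds were applied to cells in 96-well plates for 48 hours at 5 doses. At the GI50, growth is halved.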 The source made the active and inactive calls. Rule as the data show it: active = GI50 up to about 1.1 µM and inactive = higher.

Experiments:
Assay in all cases: NCI tumour cell line growth inhibition, 48 h
[1] = test system: 786-0
[2] = test system: NCI-H23
[3] = test system: ACHN
[4] = test system: MDA-MB-435
[5] = test system: SW-620
[6] = test system: LOX IMVI
[7] = test system: SR
[8] = test system: SF-539
[9] = test system: TK-10
[10] = test system: KM12
[11] = test system: COLO 205
[12] = test system: UACC-62
[13] = test system: SF-268
[14] = test system: K562
[15] = test system: SF-295
[16] = test system: HCC 2998
[17] = test system: SNB-75
[18] = test system: M14
[19] = test system: HCT-116
[20] = test system: UACC-257
[21] = test system: UO-31
[22] = test system: HT-29
[23] = test system: RPMI-8226
[24] = test system: SK-MEL-2
[25] = test system: SK-MEL-5
[26] = test system: Hs-578T
[27] = test system: SK-MEL-28
[28] = test system: NCI/ADR-RES
[29] = test system: MCF7
[30] = test system: T47D
[31] = test system: HOP-62
[32] = test system: MDA-N
[33] = test system: NCI-H460
[34] = test system: A549
[35] = test system: OVCAR-8
[36] = test system: HCT-15
[37] = test system: OVCAR-5
[38] = test system: MOLT-4
[39] = test system: SN12C
[40] = test system: SNB-19
[41] = test system: PC-3
[42] = test system: NCI-H522
[43] = test system: IGROV-1
[44] = test system: DU-145
[45] = test system: OVCAR-3
[46] = test system: CCRF-CEM
[47] = test system: EKVX
[48] = test system: U-251
[49] = test system: RXF 393
[50] = test system: OVCAR-4
[51] = test system: Malme-3M
[52] = test system: CAKI-1
[53] = test system: HOP-92
[54] = test system: SK-OV-3
[55] = test system: HL-60
[56] = test system: NCI-H226
[57] = test system: MDA-MB-231

CC1C(c2cc(C(C)(C)C)c(O)c(C(C)(C)C)c2)c2cc3c(cc2OC1N1CCOCC1)OCO3 (stereo not given)
GI50 [1]: 13.7 µM (inactive) | GI50 [2]: 28.1 µM (inactive) | GI50 [3]: 7.69 µM (inactive) | GI50 [4]: 24 µM (inactive) | GI50 [5]: 42.2 µM (inactive) | GI50 [6]: 20.3 µM (inactive) | GI50 [7]: 64.7 µM (inactive) | GI50 [8]: 12.9 µM (inactive) | GI50 [9]: 15.5 µM (inactive) | GI50 [10]: 43.9 µM (inactive) | GI50 [11]: 71 µM (inactive) | GI50 [12]: 26.4 µM (inactive) | GI50 [13]: 17.4 µM (inactive) | GI50 [14]: 27.1 µM (inactive) | GI50 [15]: 15.3 µM (inactive) | GI50 [16]: 12.9 µM (inactive) | GI50 [17]: 4.34 µM (inactive) | GI50 [18]: 17.5 µM (inactive) | GI50 [19]: 13.7 µM (inactive) | GI50 [20]: 34.6 µM (inactive) | GI50 [21]: 12.4 µM (inactive) | GI50 [22]: 19.2 µM (inactive) | GI50 [23]: 26.9 µM (inactive) | GI50 [24]: 23.7 µM (inactive) | GI50 [25]: 17.1 µM (inactive) | GI50 [26]: 3.13 µM (inactive) | GI50 [27]: 15.6 µM (inactive) | GI50 [28]: 27.4 µM (inactive) | GI50 [29]: 21.2 µM (inactive) | GI50 [30]: 21.4 µM (inactive) | GI50 [31]: 16.9 µM (inactive) | GI50 [32]: 26.9 µM (inactive) | GI50 [33]: 21.6 µM (inactive) | GI50 [34]: 16.6 µM (inactive) | GI50 [35]: 19.1 µM (inactive) | GI50 [36]: > 10 µM | GI50 [37]: > 100 µM (inactive) | GI50 [38]: > 100 µM (inactive) | GI50 [39]: 33.8 µM (inactive) | GI50 [40]: 15.7 µM (inactive) | GI50 [41]: 14.2 µM (inactive) | GI50 [42]: 21.2 µM (inactive) | GI50 [43]: 36.2 µM (inactive) | GI50 [44]: 30.1 µM (inactive) | GI50 [45]: 15.8 µM (inactive) | GI50 [46]: > 100 µM (inactive) | GI50 [47]: 23.9 µM (inactive)

CS/C(=N\C#N)S/C=C/C(=O)c1ccc(Cl)cc1
GI50 [1]: 20.8 µM (inactive) | GI50 [2]: 24.9 µM (inactive) | GI50 [3]: 34.4 µM (inactive) | GI50 [4]: 24.9 µM (inactive) | GI50 [5]: 15.6 µM (inactive) | GI50 [48]: 31.9 µM (inactive) | GI50 [7]: 3.13 µM (inactive) | GI50 [8]: 20.8 µM (inactive) | GI50 [9]: 23.6 µM (inactive) | GI50 [10]: 45.7 µM (inactive) | GI50 [11]: 25.4 µM (inactive) | GI50 [12]: 22.9 µM (inactive) | GI50 [13]: 22.5 µM (inactive) | GI50 [49]: 19.6 µM (inactive) | GI50 [14]: 10.5 µM (inactive) | GI50 [50]: 64.7 µM (inactive) | GI50 [15]: 29.1 µM (inactive) | GI50 [16]: 42.4 µM (inactive) | GI50 [17]: 43 µM (inactive) | GI50 [51]: 26.4 µM (inactive) | GI50 [18]: 22.3 µM (inactive) | GI50 [19]: 18.5 µM (inactive) | GI50 [20]: 20.9 µM (inactive) | GI50 [21]: 18.3 µM (inactive) | GI50 [52]: 6.52 µM (inactive) | GI50 [22]: 21.8 µM (inactive) | GI50 [24]: 17.6 µM (inactive) | GI50 [25]: 15.9 µM (inactive) | GI50 [26]: 32.7 µM (inactive) | GI50 [27]: 20.6 µM (inactive) | GI50 [28]: 27.7 µM (inactive) | GI50 [29]: 26.4 µM (inactive) | GI50 [30]: 25 µM (inactive) | GI50 [31]: 38.2 µM (inactive) | GI50 [53]: 88.5 µM (inactive) | GI50 [33]: > 100 µM (inactive) | GI50 [34]: > 100 µM (inactive) | GI50 [35]: 20.2 µM (inactive) | GI50 [36]: 30.2 µM | GI50 [37]: 39.4 µM (inactive) | GI50 [38]: < 0.01 µM (active) | GI50 [39]: 26.2 µM (inactive) | GI50 [40]: 42 µM (inactive) | GI50 [41]: 46.6 µM (inactive) | GI50 [42]: 18.3 µM (inactive) | GI50 [43]: 18.3 µM (inactive) | GI50 [44]: 25.6 µM (inactive) | GI50 [45]: 15.2 µM (inactive) | GI50 [54]: 42.7 µM (inactive) | GI50 [46]: 78.5 µM (inactive) | GI50 [55]: 8.15 µM (inactive) | GI50 [47]: 66.5 µM (inactive)

Fc1ccccc1CN1COc2c(cc(Cl)c3cccnc23)C1
GI50 [1]: 2.65 µM (inactive) | GI50 [2]: 1.6 µM (inactive) | GI50 [3]: 0.533 µM (active) | GI50 [4]: 2.54 µM (inactive) | GI50 [5]: 3.08 µM (inactive) | GI50 [48]: 1.56 µM (inactive) | GI50 [7]: 0.389 µM (active) | GI50 [8]: 1.22 µM (inactive) | GI50 [9]: 3.09 µM (inactive) | GI50 [10]: 2.23 µM (inactive) | GI50 [11]: 14.2 µM (inactive) | GI50 [12]: 0.427 µM (active) | GI50 [13]: 2.62 µM (inactive) | GI50 [49]: 13.9 µM (inactive) | GI50 [14]: 1.3 µM (inactive) | GI50 [50]: 0.596 µM (active) | GI50 [15]: 0.726 µM (active) | GI50 [17]: 1.56 µM (inactive) | GI50 [51]: 2.28 µM (inactive) | GI50 [18]: 2.05 µM (inactive) | GI50 [19]: 1.26 µM (inactive) | GI50 [20]: 2.51 µM (inactive) | GI50 [21]: 0.653 µM (active) | GI50 [56]: 0.624 µM (active) | GI50 [52]: 1.65 µM (inactive) | GI50 [22]: 7.85 µM (inactive) | GI50 [23]: < 0.01 µM (active) | GI50 [24]: 3.93 µM (inactive) | GI50 [25]: 0.713 µM (active) | GI50 [26]: 3.15 µM (inactive) | GI50 [27]: 4.25 µM (inactive) | GI50 [28]: 0.0425 µM (active) | GI50 [29]: 3.33 µM (inactive) | GI50 [30]: 3.6 µM (inactive) | GI50 [31]: 1.16 µM (inactive) | GI50 [53]: 3.61 µM (inactive) | GI50 [33]: 0.533 µM (active) | GI50 [34]: 2.16 µM (inactive) | GI50 [35]: 1.53 µM (inactive) | GI50 [36]: 0.0165 µM | GI50 [37]: 3.05 µM (inactive) | GI50 [38]: 0.239 µM (active) | GI50 [39]: 0.215 µM (active) | GI50 [40]: 2.24 µM (inactive) | GI50 [41]: 1.44 µM (inactive) | GI50 [42]: 2.68 µM (inactive) | GI50 [43]: 4.55 µM (inactive) | GI50 [44]: 2.62 µM (inactive) | GI50 [45]: 3.75 µM (inactive) | GI50 [54]: 6 µM (inactive) | GI50 [57]: 0.422 µM (active) | GI50 [55]: 0.265 µM (active) | GI50 [47]: 0.378 µM (active)

CN(CC(=O)O)c1ncc2c(n1)-c1ccccc1OC2c1ccccc1 (stereo not given)
GI50 [2]: 51.6 µM (inactive) | GI50 [3]: > 100 µM (inactive) | GI50 [4]: > 100 µM (inactive) | GI50 [5]: > 100 µM (inactive) | GI50 [6]: > 100 µM (inactive) | GI50 [48]: > 100 µM (inactive) | GI50 [7]: 37 µM (inactive) | GI50 [8]: > 100 µM (inactive) | GI50 [9]: > 100 µM (inactive) | GI50 [10]: 79.6 µM (inactive) | GI50 [11]: > 100 µM (inactive) | GI50 [12]: 92.5 µM (inactive) | GI50 [13]: > 100 µM (inactive) | GI50 [49]: 56.1 µM (inactive) | GI50 [14]: 71.8 µM (inactive) | GI50 [50]: > 100 µM (inactive) | GI50 [15]: > 100 µM (inactive) | GI50 [17]: 43.6 µM (inactive) | GI50 [51]: > 100 µM (inactive) | GI50 [18]: > 100 µM (inactive) | GI50 [20]: > 100 µM (inactive) | GI50 [21]: 38 µM (inactive) | GI50 [56]: 86.7 µM (inactive) | GI50 [52]: > 100 µM (inactive) | GI50 [22]: > 100 µM (inactive) | GI50 [23]: 38.1 µM (inactive) | GI50 [24]: 87.7 µM (inactive) | GI50 [25]: > 100 µM (inactive) | GI50 [26]: > 100 µM (inactive) | GI50 [27]: > 100 µM (inactive) | GI50 [28]: > 100 µM (inactive) | GI50 [29]: > 100 µM (inactive) | GI50 [31]: > 100 µM (inactive) | GI50 [32]: > 100 µM (inactive) | GI50 [53]: > 100 µM (inactive) | GI50 [33]: 89.7 µM (inactive) | GI50 [34]: 76.4 µM (inactive) | GI50 [35]: > 100 µM (inactive) | GI50 [36]: > 100 µM | GI50 [37]: > 100 µM (inactive) | GI50 [38]: 29.2 µM (inactive) | GI50 [39]: > 100 µM (inactive) | GI50 [40]: > 100 µM (inactive) | GI50 [41]: 61.1 µM (inactive) | GI50 [42]: > 100 µM (inactive) | GI50 [43]: > 100 µM (inactive) | GI50 [44]: > 100 µM (inactive) | GI50 [45]: > 100 µM (inactive) | GI50 [54]: > 100 µM (inactive) | GI50 [46]: 44.3 µM (inactive) | GI50 [57]: > 100 µM (inactive) | GI50 [55]: 33.2 µM (inactive) | GI50 [47]: > 100 µM (inactive)
